Experiments:
NEIL1 = biological target: T1, NEIL1 (Homo sapiens, UniProt Q96FI4); assay: qHTS fluorogenic glycosylase/AP lyase assay, 1536-well, Sp/Gh substrate; assay type: biochemical; conditions: 5 concentrations
T1 construct: made in house
Description: The fluorogenic assay was miniaturized to 4 µL in 1536-well black solid plates by optimization of the enzyme and Sp/Gh substrate concentrations. Briefly, 3 µL of 25 nM NEIL1 were dispensed into each well of a 1536-well plate (except buffer in columns 3 and 4 as a negative control). Compounds (DMSO solutions) and control (DMSO only) (23 nL) were transferred to the plate via Kalypsys pintool. The plate was incubated for 15 min at room temperature, and then 1 µL of the Sp/Gh-containing DNA substrate (75 nM final concentration) was added to start the reaction. The plate was immediately transferred into the ViewLux reader for the kinetic fluorescence read. Initial rate data were normalized against uninhibited and no-enzyme controls and the resulting percent activities as a function of compound concentration were fitted using the Hill equation.
Having established the general principle for a glycosylase screening assay, further assay development was undertaken to enable HTS in which the reaction volumes were reduced by 5-fold to a total of 4 µL. Initially, the library of pharmacologically active compounds (LOPAC^1280) was screened for inhibitors of NEIL1 as a determination of the feasibility of this high-throughput method. […] All compounds were screened at 5 different concentrations that allowed for the initial estimation of inhibitory potency (IC50) values, as well as an evaluation of the shape of the response curves. In addition to the anticipated inhibitors (known DNA intercalators, such as ellipticine (IC50 = 2 µM)) and other small molecules that have been previously established to be promiscuous inhibitors (such as aurintricarboxylic acid (IC50<1 µM)), one interesting hit from this screen was CGP-74514A (NCGC ID is NCGC00015229) (Figure 5A). CGP-74514A is a known small molecule inhibitor of Cdk1 in which the structure of this molecule is based on a purine ring backbone.

duplex DNA ladder = assay: DNA ladder gel-shift intercalation assay; assay type: binding; conditions: 40 µM compound, 20 min room temperature
Description: To test whether potential inhibitors could exert their inhibitory effect via DNA intercalation, 10 µL reactions containing 500 ng of a 100-bp DNA ladder were incubated at room temperature for 20 min with 40 µM of the selected compound. Ellipticine, a compound that is known to intercalate into duplex DNA was used as a control compound at a final concentration of 40 µM. Samples were resolved on a 1% agarose gel in 0.5X Tris-borate EDTA running buffer at 120 V for 2 h. Shifts in gel mobility were visualized by post staining with ethidium bromide and images were captured on a ChemiImager 5500 (Protein Simple, Santa Clara, CA).
To assay whether these inhibitors could block NEIL1 activity through DNA intercalation, a DNA ladder gel-shift assay was performed, with ellipticine serving as a positive control. A duplex DNA ladder was incubated with each inhibitor, and analyzed for electrophoretic mobility shift.

T1 sequence (Q96FI4 whole entry): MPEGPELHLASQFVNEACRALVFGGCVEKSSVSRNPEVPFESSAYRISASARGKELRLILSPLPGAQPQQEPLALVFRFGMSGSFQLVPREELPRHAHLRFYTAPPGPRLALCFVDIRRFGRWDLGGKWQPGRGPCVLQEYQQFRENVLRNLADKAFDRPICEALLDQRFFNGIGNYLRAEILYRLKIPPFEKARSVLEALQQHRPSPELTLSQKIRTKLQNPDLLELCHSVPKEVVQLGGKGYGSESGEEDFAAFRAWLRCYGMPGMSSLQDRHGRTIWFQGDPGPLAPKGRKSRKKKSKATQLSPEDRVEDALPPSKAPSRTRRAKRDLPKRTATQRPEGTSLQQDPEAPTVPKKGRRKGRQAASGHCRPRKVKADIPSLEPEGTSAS

SMILES: Cc1c2ccncc2c(C)c2c1[nH]c1ccccc12 [ellipticine, reference compound]
- IC50 (NEIL1): 2000 nM
- shift in electrophoretic mobility of DNA ladder (intercalation) (duplex DNA ladder): major reduction in the electrophoretic mobility

— paper PMC3857224, “Inhibition of DNA Glycosylases via Small Molecule Purine Analogs” (PLoS ONE, 2013)
